Test results taken from patent publication US20110166223A1, “METHODS OF INHIBITING FGFR3 SIGNALING” (CEDARS-SINAI MEDICAL CENTER, priority 2008, published 2011).
Read-outs that look alike come from different tables or passages of the source.

Key:
[1] = Water solubility (statement); type: physicochemical
[2] = test system: CCL3 and CCL4 expression in OPM2 cells; assay: Real-time RT-PCR of FGF2/FGFR3-induced CCL3 and CCL4 expression; type: cell-based; settings: NF449 one hour before FGF2, FIG. 3b
Method: FIG. 3, in accordance with an embodiment herein, depicts 4,4′,4″,4′″-[carbonyl-bis[imino-5,1,3-benzenetriyl bis-{carbonylimino}]]tetrakis-{benzene-1,3-disulfonic acid} inhibits FGF2/FGFR3 signaling in MM cell lines OPM2 and KMS11. (a) KMS11 and OPM2 cells were serum-starved for 12 hours, treated with 4,4′,4″,4′″-[carbonyl-bis[imino-5,1,3-benzenetriyl bis-{carbonylimino}]]tetrakis-{benzene-1,3-disulfonic acid} for one hour before the treatment with FGF2 and the levels of ERK MAP kinase phosphorylation were determined by western blotting with the P-ERK1/2(Thr^202/Tyr^204) antibody. As a loading control, the membranes were reprobed with antibody recognizing ERK regardless of its phosphorylation. Note the FGF2-mediated ERK phosphorylation is inhibited by 4,4′,4″,4′″-[carbonyl-bis[imino-5,1,3-benzenetriyl bis-{carbonylimino}]]tetrakis-{benzene-1,3-disulfonic acid} in both KMS11 and OPM2 cells. (b) The OPM2 cells were serum starved for 12 hours, pre-treated with 4,4′,4″,4′″-[carbonyl-bis[imino-5,1,3-benzenetriyl bis-{carbonylimino}]]tetrakis-{benzene-1,3-disulfonic acid} for one hour before FGF2 treatment, and analyzed for CCL3 and CCL4 expression by real-time RT-PCR as described herein. The results are expressed as the fold difference relative to control (2^ddCt). Note the FGF2-mediated induction of CCL3 and CCL4 that is inhibited by 4,4′,4″,4′″-[carbonyl-bis[imino-5,1,3-benzenetriyl bis-{carbonylimino}]]tetrakis-{benzene-1,3-disulfonic acid}. The data represent two independent samples, each run as a technical duplicate, with the indicated range. The results are representative for three experiments.
Total RNA was isolated using the RNeasy Mini Kit (Qiagene, Valencia, Calif.) and poly-dT-primed cDNA was synthesized from 3 μg of RNA using Omniscript RT kit (Qiagene). Real-time RT-PCRs were carried out as described in detail elsewhere, using Dynamo SYBR Green qPCR chemistry (Finnzymes, Espoo, Finland). The PCR primers were the following (5′ to 3′; product size): CCL3 (SEQ. ID. NO.: 1 and SEQ. ID. NO.: 2), 192 bp; CCL4 (SEQ. ID, NO.: 3 and SEQ. ID. NO.: 4), 214 bp; ACTIN (SEQ. ID. NO.: 5 and SEQ. ID. NO.: 6), 245 bp. The results are expressed as fold difference relative to control (2^ddCt).
Since MM represents another area of pathological FGFR3 signaling in viva, the inventors evaluated whether NF449 inhibits FGFR3 signaling in KMS11 and OPM2 MM cell lines. OPM2 and KMS11 cells overexpress FGFR3 carrying the strongly activating mutations Y373C or K650E and thus serve as an in vitro model for oncogenic FGFR3 signaling in MM [14]. […] As the CCL3 ([…]) and CCL4 (MIP-1β) chemokines were previously identified as transcriptional targets of FGFR3 signaling in MM [16], the inventors determined the effect of NF449 on the FGF2/FGFR3-induced expression of CCL3 and CCL4.

[3] = test system: limb growth and size of cultured embryos; assay: Embryo limb culture; settings: 30 μM; embryos cultured for six (6) days; FIG. 8
Excerpt: FIG. 8, in accordance with an embodiment herein, depicts embryos cultured for six (6) days.

[4] = test system: FGF2-mediated extracellular matrix loss in RCS chondrocytes; assay: Alcian blue staining of extracellular matrix in RCS chondrocytes; type: cell-based, rat; settings: FGF2 5 ng/ml, NF449 20 μM, 72 hours, FIG. 2a
Method: For Alcian blue staining, growing RCS cultures were treated with FGF2 (5 ng/ml) alone or in the presence of NF449 (20 μM) for 72 hours, fixed with 4% paraformaldehyde and stained for 30 minutes with Alcian blue. For quantification of the FGF2/FGFR3-mediated extracellular matrix loss, RCS chondrocytes were treated with FGF2 (5 ng/ml) and NF449 (20 μM) for 72 hours in the presence of 10 μCi/ml of [^35S]sulfate (Perkin Elmer, Boston, Mass.). Following the cultivation period, cells were harvested and the incorporated radioactivity was determined by liquid scintillation.
Apart from the growth arrest, aberrant FGFR3 signaling in chondrocytes leads to the loss of their extracellular matrix, rich in sulfated proteoglycans, due to inhibition of matrix synthesis as well as degradation of the existing matrix. The inventors therefore evaluated whether NF449 rescues the extracellular matrix loss induced by FGFR3 activation. […] Similar to previous findings, this matrix was lost after the 72-hours of FGF2 treatment. […] To further confirm this observation, cells were incubated with [^35S]sulfate for 72 hours to label the extracellular matrix and determined the effect of FGF2 and NF449 on the cell-bound radioactivity.

[5] = test system: FGF2/FGFR3-mediated growth-arrest of rat chondrosarcoma (RCS) cells; settings: for effect on FGF2/FGFR3-mediated growth arrest (in words): FIGS. 1, 4c
Excerpt: In this assay, the FGF2/FGFR3-mediated growth-arrest of rat chondrosarcoma (RCS) cells is used as a reporter, thus allowing for elimination of toxic compounds as false-positive hits (Krejci, et al., Invest New Drugs 2007, 25: 391-395).
Rat chondrosarcoma chondrocytes (RCS), chinese hamster ovary (CHO) cells and MM cell lines OPM2 and KMS11 were propagated in DMEM, Opti-MEM or RPMI media (Gibco, Gaitherbsburg, Md.), supplemented with 10% fetal bovine serum (Atlanta Biological, Nordeross, Ga.) and antibiotics. […] For the RCS growth-arrest experiments shown at FIGS. 1 and 4c, 1×10^4 RCS chondrocytes were seeded in 24-well tissue culture plates (Costar, Cambridge, Mass.), treated as indicated for 72 hours, and counted. FGF2 was obtained from R&D Systems (Minneapolis, Minn.); C-natriuretic peptide, suramin, NF023 and NF449 were from Calbiochem (San Diego, Calif.).

[6] = target: GSA subunit (Homo sapiens, UniProt P63092); settings: Hohenegger, et al., 1998; cited from earlier work
[7] = listed as 4,4′,4″,4′″-[carbonyl-bis[imino-5,1,3-benzenetriyl bis-{carbonylimino}]]tetrakis

Chain of GSA subunit (P63092 whole entry): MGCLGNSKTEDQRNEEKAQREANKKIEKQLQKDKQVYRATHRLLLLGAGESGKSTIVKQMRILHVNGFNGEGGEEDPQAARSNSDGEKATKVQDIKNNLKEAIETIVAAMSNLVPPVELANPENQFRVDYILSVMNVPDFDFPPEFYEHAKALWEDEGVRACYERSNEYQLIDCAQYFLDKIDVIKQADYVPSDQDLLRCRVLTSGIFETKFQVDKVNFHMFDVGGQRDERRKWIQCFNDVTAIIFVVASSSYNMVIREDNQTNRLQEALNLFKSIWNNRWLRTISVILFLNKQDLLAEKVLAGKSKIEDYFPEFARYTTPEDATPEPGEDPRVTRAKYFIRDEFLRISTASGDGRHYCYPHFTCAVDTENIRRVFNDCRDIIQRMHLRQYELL

## O=C(Nc1cc(C(=O)Nc2ccc(S(=O)(=O)O)cc2S(=O)(=O)O)cc(C(=O)Nc2ccc(S(=O)(=O)O)cc2S(=O)(=O)O)c1)Nc1cc(C(=O)Nc2ccc(S(=O)(=O)O)cc2S(=O)(=O)O)cc(C(=O)Nc2ccc(S(=O)(=O)O)cc2S(=O)(=O)O)c1 [NF449, 4,4′,4″,4′″-[carbonyl-bis[imino-5,1,3-benzenetriylbis-{carbonylimino}]]tetrakis-{benzene-1,3-disulfonic acid}]
[1]
  water solubility: water-soluble
[2]
  FGF2-mediated upregulation of CCL3 transcripts: significantly blocked
  FGF2-mediated upregulation of CCL4 transcripts: significantly blocked
[2]; [7]
  FGF2-mediated upregulation of CCL3 transcripts: inhibited
  FGF2-mediated upregulation of CCL4 transcripts: inhibited
[3]
  limb growth and size: greater limb growth and size
[4]
  FGF2-induced cellular shape change: rescued
  FGF2-mediated extracellular matrix loss, Alcian blue staining: equaled that of the control cells
[4]; [7]
  FGF2-mediated extracellular matrix loss, Alcian blue staining: reversed
[5]; 25 μM NF449, detailed cell-growth experiments, FIG. 1a, 72 hours
  rescue (reversal) of the growth-arrest phenotype: ~70%
[5]; FGF2 5 ng/ml, 72 hours, FIG. 1a
  active concentration range in the RCS growth-arrest assay: 8 to 30 µM
[5]; FIG. 1b, each agent alone, 72 hours
  rescue of the FGF2-mediated RCS growth-arrest: ~50%
[5]; RCS chondrocytes
  effect on FGF2/FGFR3-mediated growth arrest (in words): more potently that CNP
[5]; RCS chondrocytes, listed as 4,4′,4″,4′″-[carbonyl-bis[imino-5,1,3-benzenetriyl bis-{carbonylimino}]]tetrakis
  effect on FGF2/FGFR3-mediated growth arrest (in words): reversal of this phenotype
[5]; RCS chondrocytes, throughout active concentration range (8-30 μM), listed as 4,4′,4″,4′″-[carbonyl-bis[imino-5,1,3-benzenetriyl bis-{carbonylimino}]]tetrakis
  cell toxicity: lack of significant
[5]; comparison with SU5402
  concentration range inhibiting RCS growth arrest: 2 to 20 µM
[6]
  concentration needed to inhibit GSA: 0.14 µM
